Here are results for one compound from patent US7888000B2, “Method for identifying salt-sensitive persons” (Morehouse School of Medicine, priority 2002, dated 2011).

Data set [1] concerns Dahl salt-sensitive (S) rats. To be noted: exogenous 25-OHD; S rats fed a high salt diet; cited from earlier work.
For data set [2] the following is noted: rat, in vivo.

With `C=C1CC[C@H](O)C/C1=C/C=C1\CCC[C@]2(C)[C@@H]([C@H](C)CCCC(C)(C)O)CC[C@@H]12` [25-OHD, 25-hydroxycholecalciferol], the “attenuation of the blood pressure increase” value in data set [1] was “will not attenuate the blood pressure increase”. Moreover, the “increase of plasma 25-OHD” value in data set [2] is reported as “successful in S rats fed low”.
